# In patent US20150031643A1, “COMBINATION TREATMENT OF ACUTE MYELOID LEUKEMIA AND MYELODYSPLASTIC SYNDROME II” (Boehringer Ingelheim International GmbH, priority 2013, published 2015):
# Tested on: human AML cell line MV4;11
# Test: Nude mouse xenograft model derived from human AML cell line MV4;11: tumor growth
# Format: in vivo, mice
# Settings: treated for 19 days
# Procedure: MV4;11 (CRL-9591) cells were obtained from ATCC. According to the Catalogue of Somatic Mutations in Cancer of the Wellcome Trust Sanger Institute, UK, this cell line carries a mutation in the FLT3 gene. Cells were cultured in T175 tissue culture flasks at 37° C. and 5% CO2. The medium used was IMDM supplemented with 10% fetal calf serum, 1% NEAA, 1% sodium pyruvate and 1% glutamine.
# To establish subcutaneous tumors, MV4;11 cells were harvested and resuspended in PBS+5% FCS at 5×10^7 cells/ml. 50 μl of the cell suspension containing 2.5×10^6 cells was then injected subcutaneously into the right flank of the mice (1 site per mouse). Growth factor reduced BD Matrigel™ Matrix (BD Biosciences) was added to the cell suspension at a ratio of 1:1 before the injection. When tumors were well established and had reached a tumor volume of ˜120 mm^3, mice were randomly distributed between the treatment and the vehicle control groups 14 days after injecting the cells.
# The solution was freshly made up each injection day.
# The application solution was prepared on each injection day.
# Animals were treated for 19 days.
Compound,"T/C (ratio of median tumor volume of treated vs. control tumors) (Example 1, Volasertib alone 10 mg/kg once weekly i.v.) [%]","T/C (ratio of median tumor volume of treated vs. control tumors) (Example 2, Volasertib alone 20 mg/kg once weekly i.v.) [%]","T/C (ratio of median tumor volume of treated vs. control tumors) (Example 1, Azacitidine alone 40 mg/kg once weekly i.v.) [%]","T/C (ratio of median tumor volume of treated vs. control tumors) (Example 2, Azacitidine alone 40 mg/kg once weekly i.v.) [%]"
"CC[C@@H]1C(=O)N(C)c2cnc(Nc3ccc(C(=O)N[C@H]4CC[C@H](N5CCN(CC6CC6)CC5)CC4)cc3OC)nc2N1C(C)C [Volasertib, N-[trans-4-[4-(cyclopropylmethyl)-1-piperazinyl]cyclohexyl]-4-[[(7R)-7-ethyl-5,6,7,8-tetrahydro-5-methyl-8-(1-methylethyl)-6-oxo-2-pteridinyl]amino]-3-methoxy-benzamide]",79,39,–,–
"Nc1ncn([C@@H]2O[C@H](CO)[C@@H](O)[C@H]2O)c(=O)n1 [azacitidine, Azacitidine]",–,–,78,78
